Data set [1] has as its system Herpes simplex type 1 virus (HFEM strain). As to the kind of experiment: Plaque reduction test in Vero cells infected with Herpes simplex type 1 virus. Type of data set: cell-based. The protocol: (§1) Vero (African Green Monkey Kidney) cells were grown to confluence in 6 well multidishes, each well being 3.5 cm in diameter. The cells were incubated with Herpes simplex type 1 virus (HFEM strain) and overlaid with 0.5 mL of 0.9% agarose (w/v) in maintenance medium containing the test compound at a range of concentrations from 3 µg/mL in half-log dilution steps. The virus infected cultures were then incubated at 37 °C for 6 days before fixing in 4% formaldehyde solution and staining with carbolfuchsin. The dishes were then examined to find what concentration of test compound causing a 50% reduction in the number of virus plaques formed (PDD50 value) and the minimum concentration of test compound which killed the cell monolayer, leaving a clear zone devoid of cells and virus plaques (MTD).
(In general: Plaque reduction counts the foci of infection that form in a cell layer.)

Data set [2] can be described thus: Minimum concentration killing the Vero cell monolayer, read in the plaque reduction test. Conditions: african green monkey; minimum concentration which killed the cell monolayer; virus-infected Vero cells, 6 days at 37°C; read-out: MTD. Type of data set: cell-based, African Green Monkey. As to the method: as §1
Setting [3] is: Human alphaherpesvirus 1, 144 h, concentration causing a 50% reduction in the number of virus plaques, 6 days at 37°C, read-out: PDD50 (the source's name).
The mark [4] stands for this setting: Human alphaherpesvirus 1, 144 h, same PDD50 values given in µM, 6 days at 37°C, read-out: PDD50 (the source's name).
Setting [5] is: Human alphaherpesvirus 1, Vero, 144 h, read-out: PDD50, concentration causing a 50% reduction in the number of virus plaques, 6 days at 37°C.
[6] abbreviates: Human alphaherpesvirus 1, Vero, 144 h, read-out: PDD50, same PDD50 values given in µM, 6 days at 37°C.

Counter-ions that a name gives are not always drawn. Like-named read-outs stand apart in the source and are kept apart here. A value given as a limit tells only on which side of the number the result lay.

As for `NC(Cc1ccc(F)cc1)C(=O)OC[C@H]1O[C@@H](n2cc(/C=C/Br)c(=O)[nH]c2=O)C[C@@H]1OC(=O)C(N)Cc1ccc(F)cc1` (mixture of isomers) [Example 15, E-5-(2-Bromovinyl)-3',5'-di-(p-fluoro-DL-phenylalanyl)-2'-deoxyuridine bis trifluoroacetate], the results for the IC50 in data set [1] (setting [3]) and in data set [1] (setting [4]) were 0.8 µg/mL and 0.9 µM, respectively. The MCC at 144 h in data set [2] is more than 100 µg/mL.

Turning to `CC(C)(C)OC(=O)N[C@@H](Cc1ccccc1)C(=O)OC[C@H]1O[C@@H](n2cc(/C=C/Br)c(=O)[nH]c2=O)C[C@@H]1OC(=O)[C@H](Cc1ccccc1)NC(=O)OC(C)(C)C` [Example 1, E-5-(2-Bromovinyl)-3',5'-di-O-(tertbutoxycarbonylphenylalanyl)-2'-deoxyuridine], the IC50 came out at 1.1 µg/mL in data set [1] (setting [3]) and 1.33 µM in data set [1] (setting [4]). The MCC at 144 h in data set [2] is more than 100 µg/mL.

For `CC(C)(C)OC(=O)N[C@@H](Cc1ccccc1)C(=O)O[C@H]1C[C@H](n2cc(/C=C/Br)c(=O)[nH]c2=O)O[C@@H]1CO` [Example 2, E-5-(2-bromovinyl)-3'-O-(tertbutoxycarbonylphenylalanyl)-2'-deoxyuridine], the values for the IC50 in data set [1] (setting [3]) and in data set [1] (setting [4]) were 0.16 µg/mL and 0.28 µM, respectively. In addition, the MCC at 144 h in data set [2] is more than 100 µg/mL.

As for `CC(C)(C)OC(=O)N[C@@H](Cc1ccccc1)C(=O)OC[C@H]1O[C@@H](n2cc(/C=C/Br)c(=O)[nH]c2=O)C[C@@H]1O` [Example 3, E-5-(2-Bromovinyl)-5'-O-(tertbutoxycarbonylphenylalanyl)-2'-deoxyuridine], the IC50 in data set [1] (setting [3]) amounted to 0.25 µg/mL; in data set [1] (setting [4]), 0.43 µM. For the same compound, the MCC at 144 h in data set [2] is more than 100 µg/mL.

With `CC(C)(C)OC(=O)NCC(=O)OC[C@H]1O[C@@H](n2cc(/C=C/Br)c(=O)[nH]c2=O)C[C@@H]1OC(=O)CNC(=O)OC(C)(C)C` [Example 4, E-5-(2-Bromovinyl)-3',5'-di-O-(tert.butoxycarbonylglycyl)-2'-deoxyurdine], the IC50 in data set [1] (setting [3]) was 1.95 µg/mL; in data set [1] (setting [4]), 3.01 µM. For the same compound, the MCC at 144 h in data set [2] was more than 100 µg/mL.

With `CC(C)(C)OC(=O)NCC(=O)O[C@H]1C[C@H](n2cc(/C=C/Br)c(=O)[nH]c2=O)O[C@@H]1CO` [Example 5, E-5-(2-Bromovinyl)-3'-O-(tert.butoxycarbonylglycyl)-2'-deoxyuridine], the IC50 in data set [1] (setting [3]) turned out to be 0.48 µg/mL; in data set [1] (setting [4]) it was 0.98 µM. In addition, the MCC at 144 h in data set [2] was more than 100 µg/mL.

In the case of `CC(C)(C)OC(=O)NCC(=O)OC[C@H]1O[C@@H](n2cc(/C=C/Br)c(=O)[nH]c2=O)C[C@@H]1O` [Example 6, E-5-(2-Bromovinyl)-5'-O-(tert.-butoxycarbonylglycyl)-2'-deoxyuridine], the IC50 was 0.54 µg/mL in data set [1] (setting [3]) and 1.1 µM in data set [1] (setting [4]). The MCC at 144 h in data set [2] is more than 100 µg/mL.

For `NC(Cc1ccccc1)C(=O)O[C@H]1C[C@H](n2cc(/C=C/Br)c(=O)[nH]c2=O)O[C@@H]1CO` (some centres unmarked) [Example 8, E-5-(2-Bromovinyl)-3'-O-phenylalanyl-2'-deoxyuridine trifluoroacetate], the IC50 in data set [1] (setting [5]) was 0.45 µg/mL; in data set [1] (setting [6]), 0.76 µM. Besides, in data set [2], the MCC at 144 h was more than 100 µg/mL.

On to `NC(Cc1ccccc1)C(=O)OC[C@H]1O[C@@H](n2cc(/C=C/Br)c(=O)[nH]c2=O)C[C@@H]1OC(=O)C(N)Cc1ccccc1` (some centres unmarked) [Example 10], for which the IC50 in data set [1] (setting [5]) was 0.19 µg/mL; in data set [1] (setting [6]), 0.24 µM. In addition, the MCC at 144 h in data set [2] was more than 100 µg/mL.

On to `CC(C)C[C@H](NC(=O)OC(C)(C)C)C(=O)OC[C@H]1O[C@@H](n2cc(/C=C/Br)c(=O)[nH]c2=O)C[C@@H]1OC(=O)[C@H](CC(C)C)NC(=O)OC(C)(C)C` [Example 12, E-5-(2-Bromovinyl)-3',5'-di(t-butoxycarbonyl-L-leucyl)-2^1-deoxyuridine], for which the IC50 in data set [1] (setting [3]) amounted to 0.86 µg/mL; in data set [1] (setting [4]), 1.13 µM. The MCC at 144 h in data set [2] was found to be 100 µg/mL.

Consider `NCC(=O)OC[C@H]1O[C@@H](n2cc(/C=C/Br)c(=O)[nH]c2=O)C[C@@H]1O` [Example 13, E-5-(2-Bromovinyl)-5'-glycyl-2'-deoxyuridine trifluoroacetate], for which the IC50 in data set [1] (setting [5]) was 0.94 µg/mL; in data set [1] (setting [6]), 1.87 µM. The MCC at 144 h in data set [2] is more than 100 µg/mL.

As to `NCC(=O)OC[C@H]1O[C@@H](n2cc(/C=C/Br)c(=O)[nH]c2=O)C[C@@H]1OC(=O)CN` [Example 14, E-5-(2-Bromovinyl)-3',5'-di-glycyl-2'-deoxyuridine bis trifluoroacetate], the IC50 is 0.36 µg/mL in data set [1] (setting [5]) and 0.53 µM in data set [1] (setting [6]). Besides, the MCC at 144 h in data set [2] is more than 100 µg/mL.

For the compound `CC(C)C[C@H](N)C(=O)OC[C@H]1O[C@@H](n2cc(/C=C/Br)c(=O)[nH]c2=O)C[C@@H]1OC(=O)[C@@H](N)CC(C)C` [Example 16, E-5-(2-Bromovinyl)-3',5'-di-L-leucyl-2'-deoxyuridine trifluoroacetate], the PDD50 in data set [1] (concentration causing a 50% reduction in the number of virus plaques, 6 days at 37°C, trifluoroacetate) is recorded as 0.02 µg/mL. The IC50 in data set [1] (read-out: PDD50, same PDD50 values given in µM, 6 days at 37°C, trifluoroacetate) was determined as 0.025 µM. For the same compound, in data set [2], the MCC at 144 h is more than 100 µg/mL.

In the case of `CC(C)C[C@@H](NC(=O)OC(C)(C)C)C(=O)OC[C@H]1O[C@@H](n2cc(/C=C/Br)c(=O)[nH]c2=O)C[C@@H]1OC(=O)[C@@H](CC(C)C)NC(=O)OC(C)(C)C` [Example 19, E-5-(2-Bromovinyl)-3',5'-di-(t-butoxy-carbonyl-D-leucyl)-2'-deoxyuridine], in data set [1] (setting [3]), the IC50 was more than 100 µg/mL. The MCC at 144 h in data set [2] is more than 100 µg/mL.

Regarding `CC(C)(C)OC(=O)N[C@H](Cc1ccccc1)C(=O)OC[C@H]1O[C@@H](n2cc(/C=C/Br)c(=O)[nH]c2=O)C[C@@H]1OC(=O)[C@@H](Cc1ccccc1)NC(=O)OC(C)(C)C` [Example 20, E-5-(2-Bromovinyl)-3',5'-di-(t-butoxy-carbonyl-D-phenylalanyl)-2'-deoxyuridine], in data set [1] (setting [3]), the IC50 was more than 100 µg/mL. Further, the MCC at 144 h in data set [2] is more than 100 µg/mL.

`CSCC[C@H](NC(=O)OC(C)(C)C)C(=O)OC[C@H]1O[C@@H](n2cc(/C=C/Br)c(=O)[nH]c2=O)C[C@@H]1OC(=O)[C@H](CCSC)NC(=O)OC(C)(C)C` [Example 21, E-5-(2-Bromovinyl)-3',5'-di-(t-butoxy-carbonyl-L-methionyl)-2'-deoxyuridine]: the IC50 in data set [1] (setting [3]) was 1.71 µg/mL; in data set [1] (setting [4]) it was 2.15 µM. The MCC at 144 h in data set [2] was more than 100 µg/mL.

With `CC(C)[C@H](NC(=O)OC(C)(C)C)C(=O)OC[C@H]1O[C@@H](n2cc(/C=C/Br)c(=O)[nH]c2=O)C[C@@H]1OC(=O)[C@@H](NC(=O)OC(C)(C)C)C(C)C` [Example 22, E-5-(2-Bromovinyl)-3',5'-di-(t-butoxy-carbonyl-L-valyl)-2'-deoxyuridine], the IC50 in data set [1] (setting [3]) is more than 100 µg/mL. Besides, in data set [2], the MCC at 144 h was more than 100 µg/mL.

Take `CC[C@H](C)[C@H](NC(=O)OC(C)(C)C)C(=O)OC[C@H]1O[C@@H](n2cc(/C=C/Br)c(=O)[nH]c2=O)C[C@@H]1OC(=O)[C@@H](NC(=O)OC(C)(C)C)[C@@H](C)CC` [Example 23, E-5-(2-Bromovinyl)-3',5'-di-(t-butoxy-carbonyl-L-isoleucyl)-2'-deoxyuridine]: the IC50 in data set [1] (setting [3]) was more than 100 µg/mL. Also, the MCC at 144 h in data set [2] is more than 100 µg/mL.

`C[C@H](NC(=O)OC(C)(C)C)C(=O)OC[C@H]1O[C@@H](n2cc(/C=C/Br)c(=O)[nH]c2=O)C[C@@H]1OC(=O)[C@H](C)NC(=O)OC(C)(C)C` [Example 24, E-5-(2-Bromovinyl)-3',5'-di-(t-butoxy-carbonyl-L-alanyl)-2'-deoxyuridine]: the IC50 in data set [1] (setting [3]) worked out at 0.62 µg/mL; in data set [1] (setting [4]) it was 0.92 µM. Moreover, the MCC at 144 h in data set [2] is more than 100 µg/mL.

Consider `CC(C)(C)OC(=O)N[C@@H](CCC(N)=O)C(=O)OC[C@H]1O[C@@H](n2cc(/C=C/Br)c(=O)[nH]c2=O)C[C@@H]1OC(=O)[C@H](CCC(N)=O)NC(=O)OC(C)(C)C` [Example 25, E-5-(2-Bromovinyl)-3',5'-di-(t-butoxycarbonyl-L-glutaminyl)-2'-deoxyuridine], for which the IC50 was determined as 0.47 µg/mL in data set [1] (setting [3]) and 0.6 µM in data set [1] (setting [4]). Also, the MCC at 144 h in data set [2] is more than 100 µg/mL.

In the case of `CC(C)(C)OC(=O)NCCCC[C@H](NC(=O)OC(C)(C)C)C(=O)OC[C@H]1O[C@@H](n2cc(/C=C/Br)c(=O)[nH]c2=O)C[C@@H]1OC(=O)[C@H](CCCCNC(=O)OC(C)(C)C)NC(=O)OC(C)(C)C` [Example 26, E-5-(2-Bromovinyl)-3',5'-bis-(Nβ,Nε-di-t-butoxycarbonyl-L-lysyl)-2'-deoxyuridine], the IC50 was found to be 90 µg/mL in data set [1] (setting [3]) and 91 µM in data set [1] (setting [4]). Further, in data set [2], the MCC at 144 h is more than 100 µg/mL.

`CC(C)(C)OC(=O)N1CCC[C@H]1C(=O)OC[C@H]1O[C@@H](n2cc(/C=C/Br)c(=O)[nH]c2=O)C[C@@H]1OC(=O)[C@@H]1CCCN1C(=O)OC(C)(C)C` [Example 27, E-5-(2-Brcmovinyl)-3',5'-di-(t-butoxycarbonyl-L-prolyl)-2'-deoxyuridine]: the IC50 was determined as 3.51 µg/mL in data set [1] (setting [3]) and 4.83 µM in data set [1] (setting [4]). Moreover, the MCC at 144 h in data set [2] came out at 100 µg/mL.

Take `CC(C)(C)OC(=O)N1CCC[C@H]1C(=O)OC[C@H]1O[C@@H](n2cc(/C=C/Br)c(=O)[nH]c2=O)C[C@@H]1O` [Example 28]: the IC50 worked out at 2.12 µg/mL in data set [1] (setting [3]) and 4 µM in data set [1] (setting [4]). Moreover, the MCC at 144 h in data set [2] is 100 µg/mL.

Source of the values: patent EP0080305A1, “Antiviral 2'-deoxyuridines, their preparation and use” (BEECHAM GROUP PLC, priority 1981, dated 1983).
